pIC50: −log10 of the molar value.
How the values were obtained:
[1] = system: Trypanosoma brucei rhodesiense; test: microbe, parasite or virus in culture; details: STIB900, 72 h
Description: Antiprotozoal activity against Trypanosoma brucei rhodesiense STIB900 trypomastigotes incubated for 72 hrs by resazurin dye based fluorimetric analysis

Leishmania infantum = test: microbe, parasite or virus in culture; details: for pIC50: MHOM/MA(BE)/67/ITMAP263, 120 h; for IC90: MHOM/MA(BE)/67/ITMAP263, in Mus musculus, 120 h
Description: Antileishmanial activity against amastigote stage of Leishmania infantum MHOM/MA(BE)/67/ITMAP263 infected in mouse peritoneal macrophage assessed as parasite growth inhibition incubated for 5 days by Giemsa staining based assay

in vitro [2] = details: PAMPA
Description: Effective permeability of compound by PAMPA assay

physchem = details: buffer, pH 7.4
Description: Lipophilicity, logD of compound at pH 7.4 by HPLC analysis

in vitro [3] = details: mouse, liver microsomes
Description: Metabolic stability in mouse liver microsomes assessed as intrinsic clearance at 0.5 uM incubated for 30 mins by LC-MS/MS analysis

in vitro [4] = details: human, MRC5 SV2 cells
Description: (§1) Cytotoxicity against human MRC5 SV2 cells assessed as reduction in cell viability incubated for 3 days by fluorimetry

in vitro [5] = details: mouse, peritoneal macrophages
Description: (§2) Cytotoxicity against mouse peritoneal Macrophage cells assessed as reduction in cell viability incubated for 3 days by fluorimetry

in vitro [6] = details: human, liver microsomes
Description: Metabolic stability in human liver microsomes assessed as intrinsic clearance at 0.5 uM incubated for 30 mins by LC-MS/MS analysis

Macrophage = test: cells; details: Mus musculus, 72 h
Description: as §2

Trypanosoma brucei = test: microbe, parasite or virus in culture; details: Squib 427, 72 h
Description: Antitrypanosomal activity against Trypanosoma brucei Squib 427 assessed as reduction in parasite growth incubated for 72 hrs by resazurin dye based fluorimetric analysis

Trypanosoma cruzi = test: microbe, parasite or virus in culture; details: Tulahuen CL2, MRC-5 SV2, 168 h
Description: Antitrypanosomal activity against Trypanosoma cruzi Tulahuen CL2 amastigotes infected in human MRC5 SV2 cells incubated for 7 days by chlorophenol red beta-D-galactopyranoside substrate based spectrophotometric assay

cells = details: Homo sapiens, MRC-5 SV2, 72 h
Description: as §1

in vitro [7] = details: human, MRC5 SV2 cells; remark: listed apart in the source
Description: Selectivity index, ratio of IC50 for human MRC5 SV2 cells to IC50 for Trypanosoma cruzi Tulahuen CL2 amastigotes infected in human MRC5 SV2 cells

| SMILES | pIC50 [1] | IC90 [1] [µM] | pIC50 (Leishmania infantum) | IC90 (Leishmania infantum) [µM] | Papp (in vitro [2]) [×10⁻⁶ cm/s] | logD (physchem) | CLint scaled at 0.5 h, 0.5 µM (in vitro [3]) [mL/min/kg] | microsomal CLint at 0.5 h, 0.5 µM (in vitro [3]) [µL/min/mg] | IC90 at 72 h (in vitro [4]) [µM] | IC90 at 72 h (in vitro [5]) [µM] | CLint scaled at 0.5 h, 0.5 µM (in vitro [6]) [mL/min/kg] | microsomal CLint at 0.5 h, 0.5 µM (in vitro [6]) [µL/min/mg] | pIC50 (Macrophage) | pIC50 (Trypanosoma brucei) | IC90 (Trypanosoma brucei) [µM] | pIC50 (Trypanosoma cruzi) | IC90 (Trypanosoma cruzi) [µM] | pIC50 (cells) | selectivity ratio (in vitro [7]) |
| --- | --- | --- | --- | --- | --- | --- | --- | --- | --- | --- | --- | --- | --- | --- | --- | --- | --- | --- | --- |
| O=C(NCCc1nc2ncc(Cl)cc2[nH]1)c1ccccc1 | 4.19 | 64 | 4.19 | 64 | 8.77 | 2.49 | < 95 | < 23 | 64 | 64 | < 31.7 | < 23 | 4.19 | 4.19 | 64 | 4.19 | 64 | 4.19 |  |
| O=C(c1ccccc1)N1CC=C(c2cc3ccccc3[nH]2)CC1 | 4.19 | 64 | 4.19 | 64 | 4.86 | 4.15 | 13200 | 1370 | 64 | 64 | 201 | 61.9 | 4.19 | 4.19 | 64 | 4.38 | 64 | 4.19 |  |
| N#Cc1ccc(C(=O)N2CCCC(c3cc4ncccc4[nH]3)C2)cc1 (stereo not drawn) | 4.19 | 64 | 4.19 | 64 | 0.379 | 2.37 |  |  | 64 | 64 | 51.5 | < 23 | 4.19 | 4.19 | 64 | 4.59 | 59 | 4.19 | 2.49 |
| CN(CC(O)c1cc2ncccc2n1S(=O)(=O)c1ccccc1)C(=O)c1ccccc1 (stereo not drawn) | 4.23 | 64 | 4.94 | 15.1 | 15.7 | 3.31 | 2050 | 498 | 64 | 14.9 | 223 | 160 | 4.95 | 4.19 | 64 | 4.19 | 64 | 4.19 |  |
| O=C(c1ccc(F)cc1)N1CC=C(c2cc3ncccc3[nH]2)CC1 | 4.40 | 64 | 4.41 | 58.5 | 0.907 | 3.06 | ≥ 623 | 195 | 64 | 64 | ≥ 38 | 35.2 | 4.19 | 4.19 | 64 | 5.59 | 64 | 4.19 | 25.1 |
| COc1cccc(C(=O)N2CCCC(c3cc4ncccc4[nH]3)C2)c1OC (stereo not drawn) | 4.51 | 32 | 4.49 | 32 |  |  | 2600 |  | 32 | 32 | 110 |  | 4.49 | 4.49 | 32 | 5.39 | 7.52 | 4.49 | 8 |
| O=C(CCc1nc2ncc(Cl)cc2[nH]1)Nc1cccc(F)c1 | 4.19 | 64 | 4.19 | 64 | 6.13 | 3.24 | > 963 | 301 | 64 | 64 | ≥ 25 | < 23 | 4.19 | 4.19 | 64 | 4.19 | 64 | 4.19 |  |
| O=C(c1cc(C2CC2)on1)N1CCCC(c2cc3ncccc3[nH]2)C1 (stereo not drawn) | 4.60 | 32 | 4.49 | 32 |  |  | 1830 |  | 32 | 32 | 32.7 |  | 4.49 | 4.49 | 32 | 5.41 | 7.5 | 4.49 | 8.15 |
| O=C(CCc1nc2ncc(Cl)cc2[nH]1)Nc1ccccc1 | 4.19 | 64 | 4.19 | 64 | 5.97 | 2.81 | 516 | 120 | 64 | 64 | < 33.3 | < 23 | 4.19 | 4.19 | 64 | 4.19 | 64 | 4.19 |  |
| COc1ccc(C(=O)N2CCCC(c3cc4ncccc4[nH]3)C2)cc1OC (stereo not drawn) | 4.19 | 64 | 4.19 | 64 | 1.58 | 2.61 | 564 | 137 | 64 | 64 | < 32.2 | < 23 | 4.19 | 4.19 | 64 | 5.05 | 64 | 4.19 | 7.15 |
| COc1ccc2cc(C(=O)N3CCCC(c4cc5ncccc5[nH]4)C3)[nH]c2c1 (stereo not drawn) | 4.49 | 32 | 4.49 | 32 |  |  | 1000 |  | 32 | 32 | 1620 |  | 4.49 | 4.49 | 32 | 5.39 | 7.62 | 4.49 | 7.95 |
| O=C(OCc1ccccc1)N1CCCC(c2cn3cccnc3n2)C1 (stereo not drawn) | 4.26 | 64 | 4.19 | 64 |  |  |  |  | 64 | 64 |  |  | 4.19 | 4.19 | 64 | 4.46 | 64 | 4.19 | 1.88 |
